From patent publication US7776913B2, “Carnitines for treating or preventing disorders caused by andropause” (Sigma-Tau Industrie Farmaceutiche Riunite S.p.A., priority 2002, dated 2010)

What was measured:
[1] = tested on: Patients aged over 60 years with lowered blood concentrations of free and total testosterone; assay: Clinical trial overall: andropause symptoms and pathological changes of the cervico-urethral district; format: in vivo, human; details: unlike placebo
Source text: (§1) Reported here below is a clinical trial conducted in order to evaluate the activity of the combination according to the association in the treatment of the symptoms of male ageing.
Patients aged over 60 years with lowered blood concentrations of free and total testosterone (The Aging Male 4: 151-162, 2001) and complaining of symptoms figuring in the working definition of andropause proposed by the International Society for the Study of the Aging Male (I.S.S.A.M.) (The Aging Male 4: 151-162, 2001): reduced libido or sex drive and erectile function, depressed mood, difficulty concentrating, irritability and fatigue. […]
Medical history-taking and physical examinations were done for all patients. […] Total blood prostate-specific antigen (PSA) (ng/ml) as measured with the automatic test and monoclonal antibodies [Rigatti P., Scattoni V.: PSA: Antigene prostatico specifico. […] Prostate volume (cm^3) as measured by suprapubic ultrasonography and calculated by means of the three diameters rule [Rigatti P. Scattoni V.: PSA: Antigene prostatico specifico. […] Peak systolic volume (PSV) (cm/sec), end-diastolic velocity (EDV) (cm/sec), and Resistance Index (RI) (%) of the penile arteries (right and left cavernous e dorsal) as measured by means of penile basal and dynamic colour Doppler ultrasonography. RI was calculated as follows: (PSV-EDV/EDV)×100 (Urology 1997: 49: 822-830). • 4. […]

[2] = tested on: patients in the andropause; details: 40×2 mg/day; cited from earlier work
[3] = tested on: Patients aged over 60 years with lowered blood concentrations of free and total testosterone; assay: International Index of Erectile Function questionnaire (IIEF-15); format: in vivo, human; details: for IIEF-15 Erectile Function section score / IIEF-15 General Satisfaction section score (Table 18 title) / IIEF-15 Intercourse Satisfaction section score / IIEF-15 Orgasmic Function section score (Table 17 title) / IIEF-15 Sexual Desire section score: mean ± SD
Source text: as §1
(§2) Patients aged over 60 years with lowered blood concentrations of free and total testosterone (The Aging Male 4: 151-162, 2001) and complaining of symptoms figuring in the working definition of andropause proposed by the International Society for the Study of the Aging Male (I.S.S.A.M.) (The Aging Male 4: 151-162, 2001): reduced libido or sex drive and erectile function, depressed mood, difficulty concentrating, irritability and fatigue.
(§3) The above-mentioned compounds were presented to the patients in anonymous containers and administered for 6 months.
(§4) Medical history-taking and physical examinations were done for all patients. The following data were also collected prior to the start of treatment, after 1, 3 and 6 months of treatment: • 1. Total blood prostate-specific antigen (PSA) (ng/ml) as measured with the automatic test and monoclonal antibodies [Rigatti P., Scattoni V.: PSA: Antigene prostatico specifico. Edizioni Medico Scientifiche (EDIMES) Pavia, 1997]. • 2. Prostate volume (cm^3) as measured by suprapubic ultrasonography and calculated by means of the three diameters rule [Rigatti P. Scattoni V.: PSA: Antigene prostatico specifico. Edizioni Medico Scientifiche (EDIMES) Pavia, 1997]. • 3. Peak systolic volume (PSV) (cm/sec), end-diastolic velocity (EDV) (cm/sec), and Resistance Index (RI) (%) of the penile arteries (right and left cavernous e dorsal) as measured by means of penile basal and dynamic colour Doppler ultrasonography. RI was calculated as follows: (PSV-EDV/EDV)×100 (Urology 1997: 49: 822-830). • 4. Duration of full erections (in minutes) in the course of a recording period of three nights performed with Rigiscan. […] Free and total blood testosterone, LH and prolactin levels (The Aging Male 4: 151-162, 2001). • 6. Sexual function was checked by means of semistructured interviews and administration of the International Index of Erectile Function (IIEF-15) (Urology 1997: 49: 822-830). A score was calculated for each patient. • 7. Depression was quantified by means of the Hamilton Depression Scale questionnaire (DMS III) (Cancer 94: 2481-2489, 2002). A score was calculated for each patient. • 8. The subjective sensation of fatigue was calculated using the fatigue scale (Lison L.: Statistica applicata alla biologia sperimentale. Milano: Casa Editrice Ambrosiana, 1972). A score was calculated for each patient. • 9. Side effects.
(§5) Blood concentrations of PSA, free and total testosterone, prolactin LH, prostate volume, PSV, EDV, RI, full erection duration, IIEF-15, DMS III, and fatigue scale scores were compared between and within groups by means of factorial analysis of variance for randomised blocks (1 patient=1 block). Comparison of the mean values was done on the raw data with the exclusion of RI which used data subjected to angular transformation (sin^−1 √P/100) for the comparisons. Side effects were compared using the chi-square etst (Lison L.: Statistica applicata alla biologia sperimentale. Milano: Casa Editrice Ambrosiana, 1972).

[4] = tested on: Patients aged over 60 years with lowered blood concentrations of free and total testosterone; assay: Blood prolactin levels; format: in vivo, human; set-up: unit not given here; details: mean ± SD
Source text: as §1, §2, §3
Medical history-taking and physical examinations were done for all patients. The following data were also collected prior to the start of treatment, after 1, 3 and 6 months of treatment: • 1. Total blood prostate-specific antigen (PSA) (ng/ml) as measured with the automatic test and monoclonal antibodies [Rigatti P., Scattoni V.: PSA: Antigene prostatico specifico. Edizioni Medico Scientifiche (EDIMES) Pavia, 1997]. • 2. Prostate volume (cm^3) as measured by suprapubic ultrasonography and calculated by means of the three diameters rule [Rigatti P. Scattoni V.: PSA: Antigene prostatico specifico. […] Peak systolic volume (PSV) (cm/sec), end-diastolic velocity (EDV) (cm/sec), and Resistance Index (RI) (%) of the penile arteries (right and left cavernous e dorsal) as measured by means of penile basal and dynamic colour Doppler ultrasonography. RI was calculated as follows: (PSV-EDV/EDV)×100 (Urology 1997: 49: 822-830). • 4. […] A score was calculated for each patient. • 7. Depression was quantified by means of the Hamilton Depression Scale questionnaire (DMS III) (Cancer 94: 2481-2489, 2002). A score was calculated for each patient. • 8. The subjective sensation of fatigue was calculated using the fatigue scale (Lison L.: Statistica applicata alla biologia sperimentale. Milano: Casa Editrice Ambrosiana, 1972). A score was calculated for each patient. • 9. […]

[5] = tested on: Patients aged over 60 years with lowered blood concentrations of free and total testosterone; assay: Blood levels of total testosterone; format: in vivo, human; details: for Total testosterone: blood, mean ± SD
Source text: as §1, §2, §3
as §4, with “effects. […]” for “effects.”

[6] = tested on: Patients aged over 60 years with lowered blood concentrations of free and total testosterone; assay: Fatigue scale; format: in vivo, human; details: for Fatigue scale score: mean ± SD
Source text: as §1, §2, §3, §4, §5

testosterone undecaonate
Effect on the symptoms of andropause [1]: capable of attenuating
Benefit in patients in the andropause [2]: fair amount of benefit
IIEF-15 Erectile Function section score ([3]; 3 months of therapy): 16.7 ± 3.7
IIEF-15 General Satisfaction section score (Table 18 title) ([3]; 3 months of therapy): 3.7 ± 1.1
IIEF-15 Intercourse Satisfaction section score ([3]; 3 months of therapy): 4.8 ± 0.8
IIEF-15 Orgasmic Function section score (Table 17 title) ([3]; 3 months of therapy): 3.9 ± 0.9
IIEF-15 Sexual Desire section score ([3]; 3 months of therapy): 5.7 ± 0.8
IIEF-15 Erectile Function section score ([3]; 6 months of therapy): 20.2 ± 5.3
IIEF-15 General Satisfaction section score (Table 18 title) ([3]; 6 months of therapy): 4.4 ± 2.2
IIEF-15 Intercourse Satisfaction section score ([3]; 6 months of therapy): 5.8 ± 1.9
IIEF-15 Orgasmic Function section score (Table 17 title) ([3]; 6 months of therapy): 4.7 ± 1.8
IIEF-15 Sexual Desire section score ([3]; 6 months of therapy): 7.1 ± 0.9
Intercourse satisfaction (in words) ([3]; IIEF-15, Table 15): significantly increased
Sexual desire (in words) ([3]; IIEF-15, Table 16): significantly increased
Change in IIEF-15 Orgasmic Function scores (Table 18) ([3]; at 3 months, F=12.6, P<0.01): significantly increased
IIEF-15 Erectile Function section score ([3]; before therapy): 13.8 ± 2.7
IIEF-15 General Satisfaction section score (Table 18 title) ([3]; before therapy): 3.2 ± 0.6
IIEF-15 Intercourse Satisfaction section score ([3]; before therapy): 4.1 ± 0.8
IIEF-15 Orgasmic Function section score (Table 17 title) ([3]; before therapy): 3.2 ± 1.2
IIEF-15 Sexual Desire section score ([3]; before therapy): 4.3 ± 1.0
Change in IIEF-15 Erectile Function scores (in words) ([3]; both at 3 months and 6 months): significant increase
Erectile activity (in words) ([3]; conclusion from Table 14): significantly increase
Change in IIEF-15 General Satisfaction scores (text on Table 17) ([3]; time not stated): failed to induce any significant changes
Prolactin ([4]; 3 months of therapy): 7.4 ± 1.7
Prolactin ([4]; 6 months of therapy): 7.3 ± 1.8
Prolactin ([4]; before therapy): 7.7 ± 1.6
Change in total serum testosterone (in words) ([5]; at either 3 or 6 months): no significant increases
Total testosterone ([5]; 3 months of therapy): 15.5 ± 3.9 nmol/L
Total testosterone ([5]; 6 months of therapy): 15.8 ± 2.6 nmol/L
Total testosterone ([5]; before therapy): 14.5 ± 2.1 nmol/L
Fatigue scale score ([6]; 3 months of therapy): 1.1 ± 1.0
Fatigue scale score ([6]; 6 months of therapy): 0.6 ± 0.4
Change in fatigue scale score (in words) ([6]; at 3 months, F=33.6, P<0.01): statistically significant increase
Change in fatigue scale score (in words) ([6]; at 6 months, F=5.9, P=n.s.): no significant increase
Fatigue scale score ([6]; before therapy): 2.8 ± 1.3
Activity in increasing the sensation of general well-being, comparison ([6]; conclusion from Table 20): significantly more active than placebo
